Reference: publication PMC6156755, “Using Human Plasma as an Assay Medium in Caco-2 Studies Improves Mass Balance for Lipophilic Compounds” (Pharmaceutical Research, 2018)
Where two headings read alike, the source gives them in different places. Marks after values point to notes of the source that are not given here.

Key:
[1] = Human plasma protein binding (ultracentrifugation or rapid equilibrium dialysis); type: in vitro ADME; details: for fraction unbound / fraction unbound at 6 h: pH 7.4, read-out: fu (fraction unbound in plasma); for fraction unbound: neat human plasma, 37°C, concentration comparable to Caco-2 assay
Description: Binding was assessed using one of two methods: ultracentrifugation ([31]) using neat human plasma or rapid equilibrium dialysis (RED) using either neat or diluted plasma. […] To allow analysis with a single calibration curve, the total plasma and protein-free supernatant samples were ‘matrix-matched’ by taking aliquots of protein-free supernatant samples and adding to fresh tubes containing an equal volume of blank plasma, or taking aliquots of the total plasma samples and adding to fresh tubes containing an equal volume of Dulbecco’s phosphate-buffered saline (DPBS). In this way, the final composition of both the protein-free supernatant samples and the total plasma samples were ‘matched’ prior to the analysis against a common calibration curve prepared in a 1:1 mixture of human plasma and DPBS. All samples were then stored frozen at −80°C until analysis.
The holding plate was then placed on a plate shaker (set at 800 rpm; ThermoMixer C, Eppendorf) and maintained at 37°C under a 2% CO2 atmosphere. The dialysis was conducted for 6 h, assuming steady state was achieved by the end of this period ([32]). Samples were then removed from both the donor and dialysate chambers of each RED insert. […] Samples were matrix matched as described above (but using PBS buffer instead of DPBS) and stored at −80°C until analysis.
For the more lipophilic compounds with potential for very high binding, the RED method was used with diluted plasma to increase the chance of detecting concentrations in the dialysate samples. Diluted human plasma (10% v/v in pH 7.4 phosphate buffered saline) was spiked with each compound (at 10% of the concentration used for the Caco-2 experiment with neat plasma) and binding conducted as described above. The binding in neat plasma was then calculated by correcting for the dilution as described below.
For binding measurements in neat plasma by ultracentrifugation, the fraction unbound (fu) was calculated from the ratio of the average unbound concentration in protein free supernate (Cunbound) to the average total concentration in non-centrifuged plasma (Ctotal). The standard deviation (SD) for the fu value was calculated using the propagation of errors approach as described previously ([33]). For binding measurements using the RED method in neat plasma, fu was calculated from the ratio of the dialysate to total plasma concentration for each dialysis unit and the mean and SD calculated for replicate units (n = 3).
For RED binding assessments using 10% plasma, the fu − diluted for individual dialysis units was calculated in the same way as described above.

[2] = tested on: Caco-2 cell monolayer; assay: Caco-2 permeability assay with pH 7.4 buffer or human plasma in both chambers; details: for Permeability Classification: criteria of Table V
[3] = as above; details: human; for efflux ratio: Caco-2, pH 7.4, Efflux ratio (B-A/A-B)
[4] = in vitro; details: human; for Papp A→B: Caco-2, pH 7.4, Papp A-B; for Papp B→A: Caco-2, pH 7.4, Papp B-A
[5] = human; values from the literature; cited from earlier work
[6] = tested on: Caco-2 cell monolayer
[7] = buffer (HBSS/HEPES pH 7.4) in both chambers
[8] = Caco-2, pH 7.4, Papp A-B, buffer pH 7.4 in both chambers
[9] = Caco-2, pH 7.4, Papp B-A, buffer pH 7.4 in both chambers
[10] = RED with diluted human plasma (10% v/v), corrected for dilution, < values from LLOQ

| SMILES | fraction unbound [1] | Mass balance A-B [2, 7] | Permeability Classification ([2]; buffer pH 7.4) | Mass balance B-A ([2]; buffer pH 7.4 in both chambers) | Mass balance A-B ([2]; human plasma in both chambers) | Mass balance B-A ([2]; human plasma in both chambers) | Permeability Classification ([2]; human plasma) | Papp A→B [3, 8] | Papp A→B [4] | fraction unbound at 6 h [1, 10] | further results |
| --- | --- | --- | --- | --- | --- | --- | --- | --- | --- | --- | --- |
| CCN(CC)Cc1cc(Nc2ccnc3cc(Cl)ccc23)ccc1O [Amodiaquine, amodiaquine] | 0.12 | 33 ± 1.7% | Intermediate | 93 ± 4.0% | 81 ± 6.1^b % | 88 ± 4.6% | High (Papp ≥ 8.15) | 4.5 ± 0.12 ×10⁻⁶ cm/s | 90 ± 8.3 ×10⁻⁶ cm/s | – | efflux ratio ([3]; buffer pH 7.4 in both chambers): 1.6 ± 0.43; efflux ratio ([3]; human plasma in both chambers): 0.7 ± 0.12; Papp B→A [3, 9]: 7.1 ± 1.9 ×10⁻⁶ cm/s; Papp B→A [4]: 63 ± 9.6 ×10⁻⁶ cm/s |
| CC(C)NCC(O)COc1ccc(CC(N)=O)cc1 (stereo not drawn) [Atenolol, atenolol] | – | – | – | – | – | – | – | – | – | – | Human FA (fraction absorbed) [5]: 55% |
| O=C1C(O)=C([C@H]2CC[C@H](c3ccc(Cl)cc3)CC2)C(=O)c2ccccc21 [Atovaquone, atovaquone] | – | <10% | Low (Papp < 0.839) | <10% | 99 ± 1.2% | 97 ± 2.3% | High (Papp ≥ 8.15) | – | – | < 0.0002 | Mass balance A-B ([2]; buffer (HBSS/HEPES pH 7.4) in both chambers, listed as atovaquone): < 10%; Mass balance B-A ([2]; buffer pH 7.4 in both chambers, listed as atovaquone): < 10%; Papp ([3]; Caco-2, pH 7.4): > 300 ×10⁻⁶ cm/s; Papp A→B ([3]; Caco-2, pH 7.4, Papp A-B, human plasma in both chambers, corrected for fu in donor): > 300 ×10⁻⁶ cm/s; Papp B→A ([3]; Caco-2, pH 7.4, Papp B-A, human plasma in both chambers, corrected for fu in donor): > 300 ×10⁻⁶ cm/s |
| CCN(CC)CCCC(C)Nc1ccnc2cc(Cl)ccc12 (stereo not drawn) [Chloroquine, chloroquine] | – | – | High (Papp ≥ 4.90) | – | – | – | High (Papp ≥ 8.15) | – | – | – | Permeability Classification ([2]; buffer pH 7.4, listed as chloroquine): high; Permeability Classification ([2]; human plasma, listed as chloroquine): high |
| CN/C(=N/CCSCc1nc[nH]c1C)NC#N [Cimetidine, cimetidine] | 0.76 | – | – | – | – | – | – | 1.7 ± 0.45 ×10⁻⁶ cm/s | 1.9 ± 0.26 ×10⁻⁶ cm/s | – | Mass balance ([2]; both directions (where assessed) and both media): > 80%; Human FA (fraction absorbed) [5]: 64% |
| CCCCN(CCCC)CCC(O)c1cc2c(Cl)cc(Cl)cc2c2cc(C(F)(F)F)ccc12 (stereo not drawn) [Halofantrine, halofantrine] | – | <10% | Low (Papp < 0.839) | <10% | 83 ± 7.6% | 87 ± 4.4% | High (Papp ≥ 8.15) | – | – | < 0.0001 | Mass balance A-B ([2]; buffer (HBSS/HEPES pH 7.4) in both chambers, listed as halofantrine): < 10%; Mass balance B-A ([2]; buffer pH 7.4 in both chambers, listed as halofantrine): < 10%; Papp ([3]; Caco-2, pH 7.4): > 300 ×10⁻⁶ cm/s; Papp A→B ([3]; Caco-2, pH 7.4): > 300 ×10⁻⁶ cm/s; Papp B→A ([3]; Caco-2, pH 7.4): > 300 ×10⁻⁶ cm/s |
| OC(c1cc(C(F)(F)F)nc2c(C(F)(F)F)cccc12)C1CCCCN1 (stereo not drawn) [Mefloquine, mefloquine] | – | 15 ± 2.6% | Intermediate | 86 ± 6.7% | 70 ± 2.6^b % | 86 ± 3.1% | High (Papp ≥ 8.15) | 2.1 ± 0.65 ×10⁻⁶ cm/s | 180 ± 20 ×10⁻⁶ cm/s | 0.015 | Mass balance A-B ([2]; human plasma in both chambers, listed as mefloquine): 60–70%; efflux ratio ([3]; buffer pH 7.4 in both chambers): 2.2 ± 0.7; efflux ratio ([3]; human plasma in both chambers): 0.83 ± 0.11; Papp B→A [3, 9]: 4.7 ± 0.35 ×10⁻⁶ cm/s; Papp B→A [4]: 150 ± 10 ×10⁻⁶ cm/s |
| COCCc1ccc(OCC(O)CNC(C)C)cc1 (stereo not drawn) [Metoprolol, metoprolol] | 0.7 | – | – | – | – | – | – | 50 ± 6.1 ×10⁻⁶ cm/s | 57 ± 5.8 ×10⁻⁶ cm/s | – | – |
| CC(C)(C)NCc1cc(Nc2ccnc3cc(Cl)ccc23)c2c(c1O)CCCC2 [Naphthoquine, naphthoquine] | – | – | – | – | – | – | – | – | – | – | fu (fraction unbound in plasma) [1, 10]: 0.019 ^e; Efflux ratio (B-A/A-B) ([6]; Caco-2): 0.78 ± 0.12; Mass balance B-A ([6]; Caco-2): 94 ± 14%; Papp A-B ([6]; Caco-2): 230 ± 32^b 10^−6 cm/s; Papp B-A ([6]; Caco-2): 180 ± 10^b 10^−6 cm/s; Efflux ratio (B-A/A-B) ([6]; Caco-2, pH 7.4): 2.0 ± 1.3; Mass balance A-B ([6]; Caco-2, pH 7.4): 31 ± 7.2%; Mass balance B-A ([6]; Caco-2, pH 7.4): 70 ± 10%; Papp A-B ([6]; Caco-2, pH 7.4): 2.2 ± 1.3 10^−6 cm/s; Papp B-A ([6]; Caco-2, pH 7.4): 4.5 ± 1.4 10^−6 cm/s; Permeability Classification ([6]; Caco-2, pH 7.4): Intermediate |
